Assay results reported in patent US12060408B2, “Screening assays, modulators and modulation of activation of Receptor for Advanced Glycation End-products (RAGE)” (Monash University, priority 2017, dated 2024).

Test system: RAGE ligand-dependent activation of RAGE
Assay: S100A8/A9-induced NFκB activation (p65 gene expression) in CHO cells expressing RAGE constructs
Format: cell-based, human
Method: Generation of Transgenic Chinese Hamster Ovary Cells
100 ng of AT1R-Rluc8 construct was transfected into CHO cells using Lipofectamine 2000 (Thermo). Stable transfectants were selected using G418. AT1R—CHO were then transiently transfected with RAGE constructs using Lipofectamine 2000 (Invitrogen) and incubated for 16 h. The Homo sapiens AGER transcript variant 1 coding sequence (NM_001136) was synthesised and cloned between the NheI and XbaI sites of pCIneo (Promega) to generate the vector pCIneo-RAGE. This plasmid was then used to generate a library of mutant AGER clones (NP_001127). Primers 1-RAGE-SP-5′ and mCherry-XhoI-NotI-3′ were used to amplify the coding sequence of mCherry from the vector pmCherry-C1. The resultant PCR product was then used as template for a second PCR using primers 2-RAGE-SP-5′ and mCherry-XhoI-NotI-3′. The PCR product generated was digested with NheI and NotI and inserted between the NheI and NotI sites of pCIneo to generate pCIneo-SP-mCherry. The sequence of the insert was confirmed by DNA sequencing (Micromon, Monash University). […]
Cellular Expression of Pro-Inflammatory Markers and Mediators by Quantitative Real-Time PCR
After 2 hours of exposure to Ang II (1 μM) or the RAGE ligand, S100A8/A9 (5 ng/ml) cells were placed in Trizol, mRNA extracted and cDNA synthesized. Changes in the gene expression of the NFκB subunit, p65 (RelA) or NFκB-activated target genes (e.g ICAM-1, VCAM-1) were estimated by quantitative real-time RT-PCR, performed using the TaqMan system based on real-time detection of accumulated fluorescence (ABI Prism 7700, Perkin-Elmer Inc, PE Biosystems, Foster City, CA, USA). Gene expression was normalized to 18S mRNA and reported as fold change compared to the level of expression in untreated control mice/cells, which were given an arbitrary value of 1.
To measure the induction of NFκB activity by 1 μM Ang II, or 5 ng/ml of the RAGE-ligand S100A8/A9 as a signalling control, AT1R—CHO cells were transfected with 0.4 μg of plasmids encoding NFκB-SEAP or β-galactosidase (β-Gal) using Lipofectamine 2000 (Invitrogen) as per manufacturer's instructions. After 24 hours, cells transfected with each plasmid combination were then treated with Ang II (1 μM) or left untreated and incubated for 4 hours before cell supernatants and cell lysates were collected. Cell supernatants were analysed using a chemiluminescent SEAP reporter gene assay (Roche Applied Science) to detect SEAP production after treatment. To control for transfection efficiency, cell lysates were assayed for β-Gal using a commercially available kit (Promega).

Substance: L362WQRRQRRGEERKAPENQEEEEERAELNQAEEPEAGESSTGGP404 (LWQRRQRRGEERKAPENQEEEEERAELNQAEEPEAGESSTGGP; listed as Homo sapiens) [S391A-RAGE362-404, S391A mutant RAGE cytosolic tail; non-functional substitute for RAGE]
- inhibition of S100A8/A9-induced p65 expression (AT1R-CHO cells also expressing full length RAGE): inhibitory effect
- inhibition of RAGE ligand-dependent activation of wild-type RAGE (S100A8/A9) (summary statement, cell system not given): inhibits
